We go through 16 compounds from ChEMBL document CHEMBL3045592, “Studies of O,O-dimethyl α-(2,4-dichlorophenoxyacetoxy)ethylphosphonate (HW02) as a new herbicide. 1. Synthesis and herbicidal activity of HW02 and analogues as novel inhibitors of pyruvate dehydrogenase complex” (J Agric Food Chem, 2011).

Assay type in all cases: functional
Experiment [1] concerns Echinochloa crus-galli. Description: Pre-emergence herbicidal activity against Echinochloa crus-galli (barnyard grass) assessed as growth inhibition at 1500 ai g/ha after 20 days by green house test.
Experiment [2] relates to Digitaria sanguinalis. Put plainly: Post-emergence herbicidal activity against Digitaria sanguinalis (hairy crabgrass) assessed as growth inhibition at 1500 ai g/ha after 20 days by green house test.
Experiment [3] relates to Echinochloa crus-galli. Put plainly: Post-emergence herbicidal activity against Echinochloa crus-galli (barnyard grass) assessed as growth inhibition at 1500 ai g/ha after 20 days by green house test.
Experiment [4] concerns Medicago sativa. Description: Post-emergence herbicidal activity against Medicago sativa (alfalfa) assessed as growth inhibition at 1500 ai g/ha after 20 days by green house test.
The test system of experiment [5] is Brassica rapa subsp. oleifera. Put plainly: Pre-emergence herbicidal activity against Brassica rapa subsp. oleifera Si Yue Man assessed as growth inhibition at 1500 ai g/ha after 20 days by green house test.
Experiment [6] relates to Amaranthus retroflexus. Description: Pre-emergence herbicidal activity against Amaranthus retroflexus assessed as growth inhibition at 1500 ai g/ha after 20 days by green house test.
Experiment [7] has as its system Amaranthus retroflexus. Description: Post-emergence herbicidal activity against Amaranthus retroflexus assessed as growth inhibition at 1500 ai g/ha after 20 days by green house test.
Experiment [8] concerns Brassica rapa subsp. oleifera. Description: Post-emergence herbicidal activity against Brassica rapa subsp. oleifera Si Yue Man assessed as growth inhibition at 1500 ai g/ha after 20 days by green house test.
Experiment [9] deals with Digitaria sanguinalis. Put plainly: Pre-emergence herbicidal activity against Digitaria sanguinalis (hairy crabgrass) assessed as growth inhibition at 1500 ai g/ha after 20 days by green house test.
Experiment [10] has as its system Medicago sativa. Put plainly: Pre-emergence herbicidal activity against Medicago sativa (alfalfa) assessed as growth inhibition at 1500 ai g/ha after 20 days by green house test.

Some results are limits rather than exact numbers.

In the case of `COP(=O)(OC)C(OC(=O)COc1ccc(Cl)cc1)c1cccc([N+](=O)[O-])c1` (stereo not given), the “growth inhibition (GI)” value in the experiment with Echinochloa crus-galli [1] was found to be 90%; with Digitaria sanguinalis [2], 50%; in the experiment on Echinochloa crus-galli [3], 75%; in the experiment with Medicago sativa [4] it was 75%; in experiment [5] it was 90%; in the experiment with Amaranthus retroflexus [6] it was 90%. Also, the “growth inhibition (GI)” value with Amaranthus retroflexus [7] was found to be 75%; in experiment [8], 75%; with Digitaria sanguinalis [9], 90%; in the experiment on Medicago sativa [10], 90%.
Turning to `COP(=O)(OC)C(OC(=O)COc1ccc(F)c(Cl)c1)c1ccccc1` (stereo not given), the “growth inhibition (GI)” value in the experiment on Echinochloa crus-galli [1] was 75%; with Digitaria sanguinalis [2], “<=50%”; in the experiment on Echinochloa crus-galli [3] it was 50%; with Medicago sativa [4], 50%; in experiment [5], 90%; with Amaranthus retroflexus [6], 90%. Besides, the “growth inhibition (GI)” value worked out at 75% with Amaranthus retroflexus [7], 75% in experiment [8], 90% with Digitaria sanguinalis [9] and 75% in the experiment with Medicago sativa [10].
As to `COP(=O)(OC)C(C)OC(=O)COc1cc(F)cc(F)c1` (stereo not given), the “growth inhibition (GI)” value (in the experiment with Echinochloa crus-galli [1]; in the experiment with Digitaria sanguinalis [2]; in the experiment on Echinochloa crus-galli [3]; in the experiment with Medicago sativa [4]; in experiment [5]; with Amaranthus retroflexus [6]) was “<=50%” each time. Moreover, the “growth inhibition (GI)” value (with Amaranthus retroflexus [7]; in experiment [8]; in the experiment on Digitaria sanguinalis [9]; with Medicago sativa [10]) was “<=50%” throughout.
Turning to `COP(=O)(OC)C(OC(=O)COc1ccc(C(F)(F)F)cc1[N+](=O)[O-])c1ccccc1` (stereo not given), the “growth inhibition (GI)” value (with Echinochloa crus-galli [1]; with Digitaria sanguinalis [2]; with Echinochloa crus-galli [3]; in the experiment with Medicago sativa [4]; in [5]; with Amaranthus retroflexus [6]) was “<=50%” in each case. The “growth inhibition (GI)” value (with Amaranthus retroflexus [7]; in [8]; in the experiment on Digitaria sanguinalis [9]; in the experiment on Medicago sativa [10]) was “<=50%” throughout.
`COP(=O)(OC)C(OC(=O)COc1ccc(F)c(Cl)c1)C(Cl)(Cl)Cl` (stereo not given): the “growth inhibition (GI)” value is reported as 50% with Echinochloa crus-galli [1]; “<=50%” with Digitaria sanguinalis [2]; 50% in the experiment with Echinochloa crus-galli [3]; 50% in the experiment on Medicago sativa [4]; “<=50%” in [5]; 50% with Amaranthus retroflexus [6]. The “growth inhibition (GI)” value with Amaranthus retroflexus [7] was determined as 90%; in [8], 75%; in the experiment on Digitaria sanguinalis [9], 75%; with Medicago sativa [10], 50%.
In the case of `COP(=O)(OC)C(OC(=O)COc1ccc(C(F)(F)F)cc1[N+](=O)[O-])c1cccc([N+](=O)[O-])c1` (stereo not given), the “growth inhibition (GI)” value (with Echinochloa crus-galli [1]; in the experiment with Digitaria sanguinalis [2]; with Echinochloa crus-galli [3]; in the experiment on Medicago sativa [4]; in experiment [5]; in the experiment with Amaranthus retroflexus [6]) was “<=50%” in each case. The “growth inhibition (GI)” value (in the experiment with Amaranthus retroflexus [7]; in [8]; in the experiment on Digitaria sanguinalis [9]; in the experiment on Medicago sativa [10]) was “<=50%” in each case.
Take `COP(=O)(OC)C(C)OC(=O)COc1ccc(F)cc1F` (stereo not given): the “growth inhibition (GI)” value was “<=50%” in the experiment on Echinochloa crus-galli [1]; 50% in the experiment on Digitaria sanguinalis [2]; “<=50%” with Echinochloa crus-galli [3]; 50% in the experiment with Medicago sativa [4]; “<=50%” in experiment [5]; “<=50%” in the experiment with Amaranthus retroflexus [6]. For the same compound, the “growth inhibition (GI)” value came to 75% in the experiment on Amaranthus retroflexus [7], 75% in experiment [8], 75% in the experiment on Digitaria sanguinalis [9] and 50% in the experiment on Medicago sativa [10].
For `COP(=O)(OC)C(OC(=O)COc1ccc(C(F)(F)F)cc1)c1ccccc1` (stereo not given), the “growth inhibition (GI)” value (in the experiment on Echinochloa crus-galli [1]; with Digitaria sanguinalis [2]; with Echinochloa crus-galli [3]; in the experiment with Medicago sativa [4]; in experiment [5]; in the experiment on Amaranthus retroflexus [6]) was “<=50%” throughout. For the same compound, the “growth inhibition (GI)” value (in the experiment on Amaranthus retroflexus [7]; in experiment [8]; in the experiment on Digitaria sanguinalis [9]; with Medicago sativa [10]) was “<=50%” throughout.
With `COP(=O)(OC)C(OC(=O)COc1ccc(Cl)c(C)c1)c1cccc([N+](=O)[O-])c1` (stereo not given), the “growth inhibition (GI)” value is recorded as “<=50%” in the experiment on Echinochloa crus-galli [1]; “<=50%” with Digitaria sanguinalis [2]; “<=50%” in the experiment with Echinochloa crus-galli [3]; 75% in the experiment on Medicago sativa [4]; 50% in experiment [5]; 75% in the experiment on Amaranthus retroflexus [6]. For the same compound, the “growth inhibition (GI)” value is recorded as 75% with Amaranthus retroflexus [7], “<=50%” in experiment [8], 50% in the experiment with Digitaria sanguinalis [9] and 75% in the experiment on Medicago sativa [10].
Take `COP(=O)(OC)C(C)OC(=O)COc1ccc(F)c(Cl)c1` (stereo not given): the “growth inhibition (GI)” value with Echinochloa crus-galli [1] is given as 50%; with Digitaria sanguinalis [2], “<=50%”; in the experiment with Echinochloa crus-galli [3], “<=50%”; in the experiment on Medicago sativa [4], 75%; in experiment [5], “<=50%”; in the experiment on Amaranthus retroflexus [6], “<=50%”. The “growth inhibition (GI)” value with Amaranthus retroflexus [7] is 75%; in [8] it was 75%; with Digitaria sanguinalis [9] it was 50%; with Medicago sativa [10], 75%.
For the compound `COP(=O)(OC)C(OC(=O)COc1cccc(C)c1C)c1ccccc1` (stereo not given), the “growth inhibition (GI)” value in the experiment with Echinochloa crus-galli [1] was 75%; in the experiment on Digitaria sanguinalis [2] it was “<=50%”; in the experiment on Echinochloa crus-galli [3] it was 50%; in the experiment with Medicago sativa [4] it was 50%; in [5] it was 90%; in the experiment on Amaranthus retroflexus [6], 50%. Further, the “growth inhibition (GI)” value was “<=50%” in the experiment on Amaranthus retroflexus [7], 75% in experiment [8], “<=50%” in the experiment with Digitaria sanguinalis [9] and 75% with Medicago sativa [10].
Consider `COP(=O)(OC)C(OC(=O)COc1cccc(C(F)(F)F)c1)c1cccc([N+](=O)[O-])c1` (stereo not given), for which the “growth inhibition (GI)” value is reported as “<=50%” in the experiment with Echinochloa crus-galli [1]; “<=50%” with Digitaria sanguinalis [2]; 50% in the experiment with Echinochloa crus-galli [3]; “<=50%” in the experiment on Medicago sativa [4]; 50% in experiment [5]; 50% with Amaranthus retroflexus [6]. Moreover, the “growth inhibition (GI)” value with Amaranthus retroflexus [7] was “<=50%”; in experiment [8] it was 50%; in the experiment with Digitaria sanguinalis [9] it was “<=50%”; with Medicago sativa [10] it was 50%.
For `COP(=O)(COC(=O)COc1ccccc1)OC` [(DIMETHOXYPHOSPHORYL)METHYL 2-PHENOXYACETATE], the “growth inhibition (GI)” value (in the experiment on Echinochloa crus-galli [1]; in the experiment on Digitaria sanguinalis [2]; with Echinochloa crus-galli [3]; in the experiment on Medicago sativa [4]; in [5]; with Amaranthus retroflexus [6]) was “<=50%” throughout. The “growth inhibition (GI)” value (in the experiment on Amaranthus retroflexus [7]; in experiment [8]; with Digitaria sanguinalis [9]; in the experiment with Medicago sativa [10]) was “<=50%” each time.
As for `COP(=O)(OC)C(C)OC(=O)COc1ccc(Br)cc1` (stereo not given), the “growth inhibition (GI)” value is given as “<=50%” with Echinochloa crus-galli [1]; “<=50%” in the experiment with Digitaria sanguinalis [2]; “<=50%” with Echinochloa crus-galli [3]; 50% in the experiment with Medicago sativa [4]; “<=50%” in experiment [5]; “<=50%” with Amaranthus retroflexus [6]. Further, the “growth inhibition (GI)” value in the experiment with Amaranthus retroflexus [7] was 50%; in [8] it was 75%; with Digitaria sanguinalis [9] it was “<=50%”; in the experiment with Medicago sativa [10] it was “<=50%”.
As to `COP(=O)(OC)C(C)OC(=O)COc1ccc(Cl)cc1` (stereo not given), the “growth inhibition (GI)” value in the experiment with Echinochloa crus-galli [1] is 90%; in the experiment with Digitaria sanguinalis [2] it was “<=50%”; in the experiment on Echinochloa crus-galli [3] it was “<=50%”; in the experiment on Medicago sativa [4], 50%; in experiment [5], 90%; in the experiment on Amaranthus retroflexus [6], 90%. The “growth inhibition (GI)” value with Amaranthus retroflexus [7] was found to be 90%; in experiment [8], 75%; in the experiment with Digitaria sanguinalis [9], 90%; in the experiment with Medicago sativa [10] it was 90%.
As to `COP(=O)(OC)C(OC(=O)COc1cccc(C)c1)c1ccccc1` (stereo not given), the “growth inhibition (GI)” value was “<=50%” in the experiment with Echinochloa crus-galli [1]; “<=50%” in the experiment on Digitaria sanguinalis [2]; “<=50%” in the experiment with Echinochloa crus-galli [3]; 50% with Medicago sativa [4]; 75% in [5]; 75% with Amaranthus retroflexus [6]. In addition, the “growth inhibition (GI)” value in the experiment with Amaranthus retroflexus [7] is given as 50%; in experiment [8], 50%; with Digitaria sanguinalis [9] it was “<=50%”; with Medicago sativa [10], 75%.
